Earlier results on 1 molecule are cited in patent US20060120979A1, “Skin care composition comprising hydroquinone and a substantially anhydrous base” (priority 2004, published 2006).

On to `Oc1ccc(O)cc1` [Hydroquinone], for which the solubility in alcohols result (alcohols) is “freely soluble”. For the same molecule, the solubility in water result (water) is “less soluble”.
